Test results published in PubChem BioAssay (NCI).
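Dose response: 5 concentrations. Exposure: 48 h. Format: 96-well plates. Endpoint: linear interpolation; highest concentration if not reached. GI50 marks 50% less growth. Definition used: TGI = concentration required for complete inhibition of growth.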

How the values were obtained:
Test in all cases: growth of human tumour cells (NCI), 48 h
[1] = system: 786-0 renal
[2] = system: A498 renal
[3] = system: A549 NSCLC
[4] = system: ACHN renal
[5] = system: BT-549 breast
[6] = system: CAKI-1 renal
[7] = system: CCRF-CEM leukemia
[8] = system: COLO 205 colon
[9] = system: DU-145 prostate
[10] = system: HCC-2998 colon
[11] = system: HCT-116 colon
[12] = system: HCT-15 colon
[13] = system: HL-60(TB) leukemia
[14] = system: HOP-62 NSCLC
[15] = system: HOP-92 NSCLC
[16] = system: HS 578T breast
[17] = system: HT29 colon
[18] = system: IGROV1 ovarian
[19] = system: K-562 leukemia
[20] = system: KM12 colon
[21] = system: LOX IMVI melanoma
[22] = system: MCF7 breast
[23] = system: MDA-MB-231 breast
[24] = system: MDA-MB-435
[25] = system: NCI-H226 lung
[26] = system: NCI-H23 lung
[27] = system: NCI-H460 lung
[28] = system: NCI-H522 lung
[29] = system: NCI/ADR-RES ovarian
[30] = system: OVCAR-3 ovarian
[31] = system: OVCAR-4 ovarian
[32] = system: OVCAR-5 ovarian
[33] = system: OVCAR-8 ovarian
[34] = system: RPMI-8226 leukemia
[35] = system: RXF 393 renal
[36] = system: SF-268 CNS
[37] = system: SF-295 CNS
[38] = system: SF-539 CNS
[39] = system: SK-MEL-28 melanoma
[40] = system: SK-MEL-5 melanoma
[41] = system: SK-OV-3 ovarian
[42] = system: SN12C renal
[43] = system: SNB-19 CNS
[44] = system: SNB-75 CNS
[45] = system: SR leukemia
[46] = system: SW-620 colon
[47] = system: T-47D breast
[48] = system: TK-10 renal
[49] = system: U251 CNS
[50] = system: UACC-257 melanoma
[51] = system: UO-31 renal

Work on `Cc1cc(Nc2ncc(F)c(N[C@H]3[C@@H](C(N)=O)[C@@H]4C=C[C@H]3C4)n2)ccc1N1CCN(C)CC1` yielded a GI50 [1] of 68.8 nM, a TGI [1] of 5250 nM and a GI50 [2] of under 11.6 nM. The TGI [2] was 69.3 nM, the GI50 [3] was under 10 nM and the TGI [3] was 2320 nM. For the same molecule, the GI50 [4] was 17.8 nM, the TGI [4] was 12900 nM and the GI50 [5] was 76.5 nM. The TGI [5] was 1150 nM, the GI50 [6] was 21.7 nM and the TGI [6] was 14000 nM. It also gave a GI50 [7] of under 10 nM, a TGI [7] of 6030 nM and a GI50 [8] of under 10 nM. The TGI [8] was under 32.6 nM, the GI50 [9] was 455 nM and the TGI [9] was 17700 nM. The GI50 [10] was 2150 nM, the TGI [10] was 6180 nM and the GI50 [11] was 19.9 nM. It also gave a TGI [11] of 7810 nM, a GI50 [12] of 37.4 nM and a TGI [12] of 16000 nM. It also gave a GI50 [13] of 2960 nM, a TGI [13] of 11400 nM and a GI50 [14] of 134 nM. The TGI [14] was 2560 nM, the GI50 [15] was 24.9 nM and the TGI [15] was 327 nM. It also gave a GI50 [16] of 27.4 nM, a TGI [16] of 330 nM and a GI50 [17] of 47.1 nM. The GI50 [18] was 30.2 nM, the TGI [18] was 18800 nM and the GI50 [19] was 416 nM. It also gave a TGI [19] of over 100000 nM, a GI50 [20] of 208 nM and a TGI [20] of 11500 nM. For the same molecule, the GI50 [21] was 24.9 nM, the TGI [21] was 1290 nM and the GI50 [22] was 59.9 nM. For the same molecule, the TGI [22] was 3230 nM, the GI50 [23] was 124 nM and the TGI [23] was 1730 nM. The GI50 [24] was 1490 nM, the TGI [24] was 15600 nM and the GI50 [25] was under 15.6 nM. For the same molecule, the TGI [25] was 2850 nM, the GI50 [26] was 1510 nM and the TGI [26] was 7150 nM. It also gave a GI50 [27] of 10.1 nM, a TGI [27] of 4210 nM and a GI50 [28] of 43.6 nM. The TGI [28] was 3350 nM, the GI50 [29] was 348 nM and the TGI [29] was 8570 nM. It also gave a GI50 [30] of 1480 nM, a TGI [30] of 3150 nM and a GI50 [31] of 1600 nM. It also gave a TGI [31] of 3220 nM, a GI50 [32] of 40.5 nM and a TGI [32] of over 20400 nM. It also gave a GI50 [33] of 133 nM, a TGI [33] of 6340 nM and a GI50 [34] of 1860 nM. For the same molecule, the TGI [34] was 6850 nM, the GI50 [35] was 16.5 nM and the TGI [35] was 187 nM. It also gave a GI50 [36] of 107 nM, a TGI [36] of 6680 nM and a GI50 [37] of under 17.7 nM. For the same molecule, the TGI [37] was 12700 nM, the GI50 [38] was 36.2 nM and the TGI [38] was 586 nM. The GI50 [39] was 4280 nM, the TGI [39] was 17700 nM and the GI50 [40] was 1970 nM. It also gave a TGI [40] of 6790 nM, a GI50 [41] of 36.8 nM and a TGI [41] of 2220 nM. The GI50 [42] was 32.8 nM, the TGI [42] was 11500 nM and the GI50 [43] was 725 nM. It also gave a TGI [43] of 8750 nM, a GI50 [44] of under 15.3 nM and a TGI [44] of 167 nM. For the same molecule, the GI50 [45] was under 10 nM, the TGI [45] was 2320 nM and the GI50 [46] was 21.8 nM. It also gave a TGI [46] of 8500 nM, a GI50 [47] of 6740 nM and a TGI [47] of 26700 nM. It also gave a GI50 [48] of 22.5 nM, a TGI [48] of 1960 nM and a GI50 [49] of 69.4 nM. It also gave a TGI [49] of 4800 nM, a GI50 [50] of 4070 nM and a TGI [50] of 18100 nM. The GI50 [51] was 39.3 nM and the TGI [51] was 4640 nM.
